{"source": "patent US20260028319A1", "about": "“INTERMEDIATE SALT FOR THE PREPARATION OF BIS(FLUOROALKYL) BENZODIAZEPINONE COMPOUNDS” (Immunome, Inc., priority 2022, published 2026)", "format_in_all_cases": "physicochemical", "key": {"[1]": {"test": "(I-1) and (1) stability study, water content by KF", "conditions": "for Water content (by KF) following storage: 6 months; for Water content (by KF), Initial Results: before storage", "experimental": "(§1) Assay and water content of the oily free acid (I-1) were tested following a 6-month period in 25° C./60% RH (relative humidity) and 40° C./75% RH (Table 2a)."}, "[2]": {"test": "Stability of Na, CHA and tBuNH2 salts of (I-1), GC/MS assay", "experimental": "Na and tBuNH2 salts of (I-1) were prepared. Stability of the salts was tested and compared to the stability of the CHA salt ((1)).\nTable 3 also emphasizes that specific salts of (I-1) provide high purity over time. However, it cannot be said that any possible salt (any possible cation) of (I-1) will give rise to such high stability over time."}, "[3]": {"test": "(I-1) and (1) stability study, assay by HPLC", "conditions": "for Stability, in words: free acid versus CHA salt; for Assay (by HPLC), Initial Results: before storage", "experimental": "as §1\nSimilarly, the corresponding CHA salt (1), which is a powder, was tested for its purity/assay:\nIt could be stipulated that increased water amount over time in the free acid gives rise to the observed assay which deteriorates as the test progresses."}}, "data": [{"smiles": "CC(C)(C)OC(=O)C[C@@H](CCC(F)(F)F)C(=O)O", "note": "[(1)]", "values": [{"measurement": "Water content (by KF) following storage", "setting": "[1]; 25° C./60% RH", "result": 0.3, "unit": "%"}, {"measurement": "Water content (by KF) following storage", "setting": "[1]; 40° C./75% RH", "result": 0.3, "unit": "%"}, {"measurement": "Water content (by KF), Initial Results", "setting": "[1]", "result": 0.2, "unit": "%"}, {"measurement": "Purity (GC/MS assay) At 2-8° C. for 1 week", "setting": "[2]; 2-8° C., 1 week", "result": 95.8, "unit": "% w/w"}, {"measurement": "Purity (GC/MS assay) At 45° C. for 1 week", "setting": "[2]; 45° C., 1 week", "result": 98.2, "unit": "% w/w"}, {"measurement": "Stability among salts of (I-1), in words", "setting": "[2]; Na, CHA and tBuNH2 salts compared", "result": "most stable salt"}, {"measurement": "Assay by HPLC", "setting": "[3]; 1 month, 2-8° C.", "result": 96.2, "unit": "% w/w"}, {"measurement": "Assay by HPLC", "setting": "[3]; 1 month, 25° C./60% RH", "result": 94.8, "unit": "% w/w"}, {"measurement": "Assay by HPLC", "setting": "[3]; 1 month, 40° C./75% RH", "result": 94.3, "unit": "% w/w"}, {"measurement": "Assay by HPLC", "setting": "[3]; 3 months, 2-8° C.", "result": 95.1, "unit": "% w/w"}, {"measurement": "Assay by HPLC", "setting": "[3]; 3 months, 25° C./60% RH", "result": 94.5, "unit": "% w/w"}, {"measurement": "Assay by HPLC", "setting": "[3]; 3 months, 40° C./75% RH", "result": 93.0, "unit": "% w/w"}, {"measurement": "Assay by HPLC", "setting": "[3]; 6 months, 2-8° C.", "result": 94.6, "unit": "% w/w"}, {"measurement": "Assay (by HPLC) following storage", "setting": "[3]; 6 months, 25° C./60% RH", "result": 95.1, "unit": "% w/w"}, {"measurement": "Assay (by HPLC) following storage", "setting": "[3]; 6 months, 40° C./75% RH", "result": 94.4, "unit": "% w/w"}, {"measurement": "Stability, in words", "setting": "[3]", "result": "much more stable"}, {"measurement": "Assay (by HPLC), Initial Results", "setting": "[3]", "result": 95.0, "unit": "% w/w"}]}, {"smiles": "CC(C)(C)OC(=O)C[C@@H](CCC(F)(F)F)C(=O)O", "note": "[(I-1), (2R)-2-(2-tert-Butoxy-2-oxoethyl)-5,5,5-trifluoropentanoic acid, reference compound]", "values": [{"measurement": "Water content (by KF) following storage", "setting": "[1]; 25° C./60% RH", "result": 2.0, "unit": "%"}, {"measurement": "Water content (by KF) following storage", "setting": "[1]; 40° C./75% RH", "result": 2.3, "unit": "%"}, {"measurement": "Water content (by KF), Initial Results", "setting": "[1]", "result": 0.8, "unit": "%"}, {"measurement": "Assay (by HPLC) following storage", "setting": "[3]; 6 months, 25° C./60% RH", "result": 92.8, "unit": "% w/w"}, {"measurement": "Assay (by HPLC) following storage", "setting": "[3]; 6 months, 40° C./75% RH", "result": 84.5, "unit": "% w/w"}, {"measurement": "Stability, in words", "setting": "[3]; listed as free acid compound", "result": "unstable"}, {"measurement": "Assay (by HPLC), Initial Results", "setting": "[3]", "result": 93.5, "unit": "% w/w"}]}]}
